Structures can show the parent of a compound that is named as a salt.
Tests used:
[1] = test system: TGF-β induced [14C]-proline incorporation in rat mesangial cells; test: [14C]-proline incorporation assay (collagen biosynthesis); assay type: cell-based; settings: Rattus norvegicus, Mesangial cell, 44 h, inhibition of TGF-β1 (1 ng/ml) induced [14C]-proline incorporation, IRMC cells
in vitro = settings: rat, CC50 (μM)
[2] = Discrete oral pharmacokinetic studies in male Sprague Dawley rats; assay type: in vivo, rat; settings: male SD rats; for change in plasma concentrations between the 75 and 350 mg/kg/day dosing groups: after the initial dose; for adverse compound related effects: 2 and 20 mg/kg single dose, 75 and 350 mg/kg daily (5 days)
Protocol: Discrete oral pharmacokinetic studies were performed for example compounds 116, 107, and 102.
116: 2 mg/kg and 20 mg/kg of 116 were administered as single doses to male Sprague Dawley (SD) rats. 75 mg/kg and 350 mg/kg of 116 were administered daily (5 days) to male Sprague Dawley (SD) rats.
107: 2 mg/kg and 20 mg/kg of 107 were administered as single doses to male Sprague Dawley (SD) rats. 75 mg/kg and 350 mg/kg of 107 were administered daily (5 days) to male Sprague Dawley (SD) rats.
102: 2 mg/kg and 20 mg/kg of 102 were administered as single doses to male Sprague Dawley (SD) rats. 75 mg/kg and 350 mg/kg of 102 were administered daily (5 days) to male Sprague Dawley (SD) rats. […] An increase in plasma concentrations were observed between the 75 and 350 mg/kg/day dosing groups.

[3] = MTS tetrazolium reduction cell viability assay; settings: rat, rat mesangial cells (1097/IRMC cells), TGF-β1 stimulated, CC50 (μM), vs 1% DMSO vehicle
[4] = test system: rat mesangial cells (1097/IRMC cells); test: MTS tetrazolium reduction cell viability assay; settings: TGF-β1 stimulated IRMC cells, vs 1% DMSO vehicle
[5] = daily, throughout the 5-day study

Structure (SMILES) | IC50 [1] | CC50 at 48 h (in vitro) | other results
COc1cc(C2CC2C(=O)n2nc(O)c3ccccc32)ccc1C1=CCNCC1 (stereo not shown) [Example 146, (3-hydroxy-1H-indazol-1-yl)(2-(3-methoxy-4-(1,2,3,6-tetrahydropyridin-4-yl)phenyl)cyclopropyl)methanone trifluoroacetic acid salt] | 19.6 µM | > 300 µM | 
COc1cc(/C=C/C(=O)Nc2ccccc2C(=O)O)ccc1C1=CCNCC1 [Example 98, (E)-2-(3-(3-methoxy-4-(1,2,3,6-tetrahydropyridin-4-yl)phenyl)acrylamido)benzoic Acid] | 13.5 µM | 289 µM | 
COc1cc(C2CC2C(=O)Nc2ccc(C#N)cc2)ccc1C1=CCNCC1 (stereo not shown) [Example 121, N-(4-cyanophenyl)-2-(3-methoxy-4-(1,2,3,6-tetrahydropyridin-4-yl)phenyl)cyclopropane Carboxamide] | 3.79 µM | 8.47 µM | 
COc1cc(/C=C/C(=O)Nc2ccccc2F)ccc1C1=CCNCC1 [Example 141, (E)-N-(2-fluorophenyl)-3-(3-methoxy-4-(1,2,3,6-tetrahydropyridin-4-yl)phenyl)acrylamide] | 4.85 µM | 13.5 µM | 
COc1cc(/C=C/C(=O)Nc2ccc(C#N)cc2)ccc1C1=CCNCC1 [Example 139, (E)-N-(4-cyanophenyl)-3-(3-methoxy-4-(1,2,3,6-tetrahydropyridin-4-yl)phenyl)acrylamide trifluoroacetic acid salt] | 5.36 µM | 9.03 µM | 
COc1cc(/C=C/C(=O)Nc2ccc(F)cc2)ccc1C1=CCNCC1 [Example 120, (E)-N-(4-fluorophenyl)-3-(3-methoxy-4-(1,2,3,6-tetrahydropyridin-4-yl)phenyl)acrylamide] | 3.22 µM | 10.8 µM | 
COc1cc(C2CC2C(=O)Nc2ccccc2F)ccc1C1=CCNCC1 (stereo not shown) [Example 145, N-(2-fluorophenyl)-2-(3-methoxy-4-(1,2,3,6-tetrahydropyridin-4-yl)phenyl)cyclopropane carboxamide trifluoroacetic acid] | 3.71 µM | 11.7 µM | 
COc1cc(/C=C/C(=O)Nc2ccccc2C(=O)O)ccc1CC1CC1 [Example 102, 2-[[(E)-3-[4-(cyclopropylmethyl)-3-methoxyphenyl]prop-2-enoyl]amino]benzoic Acid] | 3.87 µM |  | coverage of IC50 relative to a 200 mg/kg/day regime of FT011 ([2]; 20 mg/kg): superior; coverage of IC50 relative to a 200 mg/kg/day regime of FT011 ([2]; 75 mg/kg): superior; coverage of IC50 relative to a 200 mg/kg/day regime of FT011 ([2]; 350 mg/kg): superior; change in plasma concentrations between the 75 and 350 mg/kg/day dosing groups [2]: An increase; trough concentrations, 75 and 350 mg/kg/day dosing group [2, 5]: consistent with dosing amounts; CC50 at 48 h [3]: 11.4 µM
COc1cc(/C=C/C(=O)Nc2ccccc2-n2cnc(C)n2)ccc1C1=CCNCC1 [Example 140, (E)-3-(3-methoxy-4-(1,2,3,6-tetrahydropyridin-4-yl)phenyl)-N-(2-(3-methyl-1H-1,2,4-triazol-l-yl)phenyl)acrylamide trifluoroacetic acid salt] | 8.47 µM | 36.1 µM | 
COc1cc(C2CC2C(=O)Nc2ccccc2-n2cnc(C)n2)ccc1C1=CCNCC1 (stereo not shown) [Example 144, 2-(3-methoxy-4-(1,2,3,6-tetrahydropyridin-4-yl)phenyl)-N-(2-(3-methyl-1H-1,2,4-triazol-1-yl)phenyl)cyclopropanecarboxamide trifluoroacetic acid salt] | 20.9 µM | 81 µM | 
COc1ccc(/C=C/C(=O)Nc2ccccc2C(=O)O)c(OCCN(C)C)c1OC [Example 116, (E)-2-(3-(2-(2-(dimethylamino)ethoxy)-3,4-dimethoxyphenyl)acrylamido)benzoic Acid] |  |  | coverage of IC50 relative to a 200 mg/kg/day regime of FT011 ([2]; 75 mg/kg): superior; coverage of IC50 relative to a 200 mg/kg/day regime of FT011 ([2]; 350 mg/kg): superior; adverse compound related effects [2]: No adverse compound related effects were observed; change in plasma concentrations between the 75 and 350 mg/kg/day dosing groups [2]: little to no increase; trough concentrations, 350 mg/kg/day dosing group [2, 5]: lower than expected; CC50 [4]: > 300 µM; CC50 at 48 h [3]: 294 µM
COc1cc(/C=C/C(=O)Nc2ccccc2C(=O)O)ccc1C1=CCN(C)CC1 [Example 99, (E)-2-(3-(3-methoxy-4-(1-methyl-1,2,3,6-tetrahydropyridin-4-yl)phenyl)acrylamido)benzoic Acid] | 34.7 µM | > 300 µM | 
COc1ccc(/C=C/C(=O)Nc2ccccc2C(=O)O)cc1C1=CCN(C)CC1 [Example 104, (E)-2-(3-(4-methoxy-3-(1-methyl-1,2,3,6-tetrahydropyridin-4-yl)phenyl)acrylamido)benzoic acid trifluoroacetic acid salt] | 41.4 µM | 281 µM | 
COc1cc(C2CC2C(=O)Nc2ccc(F)cc2)ccc1C1=CCNCC1 (stereo not shown) [Example 143, N-(4-fluorophenyl)-2-(3-methoxy-4-(1,2,3,6-tetrahydropyridin-4-yl)phenyl)cyclopropane carboxamide trifluoroacetic acid salt] | 2.81 µM | 7.2 µM | 
COc1cc(/C=C/C(=O)n2nc(O)c3ccccc32)ccc1C1=CCNCC1 [Example 142, (E)-1-(3-hydroxy-1H-indazol-1-yl)-3-(3-methoxy-4-(1,2,3,6-tetrahydropyridin-4-yl)phenyl)prop-2-en-1-one] | 31.7 µM | > 300 µM | 
CN1CCOc2ccc(/C=C/C(=O)Nc3ccccc3C(=O)O)cc21 [Example 107, 2-[[(E)-3-(4-methyl-2,3-dihydro-1,4-benzoxazin-6-yl)prop-2-enoyl]amino]benzoic Acid] | 14.9 µM |  | coverage of IC50 relative to a 200 mg/kg/day regime of FT011 ([2]; 350 mg/kg): superior; adverse compound related effects [2]: No adverse compound related effects were observed; change in plasma concentrations between the 75 and 350 mg/kg/day dosing groups [2]: an increase; trough concentrations, 75 and 350 mg/kg/day dosing group [2, 5]: consistent with dosing amounts; CC50 at 48 h [3]: > 100 µM
